Test results reported in patent US20160229835A1, “NOVEL PYRIDYLOXYACETYL TETRAHYDROISOQUINOLINE COMPOUNDS USEFUL AS NAMPT INHIBITORS” (ELI LILLY AND COMPANY, priority 2013, published 2016).
Like-named read-outs stand apart in the source and are kept apart here.

Columns and labels:
Assay type in all cases: cell-based
Caki-1 = experiment: Cell Proliferation Assay ±NA, Caki-1; conditions: Homo sapiens, Caki-1, kidney, treatment time 72 hr
Method: (§1) The purpose of this assay is to measure the ability of a compound to inhibit proliferation of endometrium, kidney, adrenal gland, and autonomic ganglia cancer cell lines dependent on the NAMPT-mediated NAD^+ formation in the presence or absence of NA (10 μM) in vitro. One day before the planned initiation of compound treatment portion of the assay, one vial of assay ready frozen cells is thawed, and the cells are grown overnight in the media as shown in Table 3 under 5% CO2 at 37° C. Then, the cell layer is briefly rinsed with 0.25% (w/v) Trypsin-0.038% (w/v) EDTA solution followed with the addition of 3.0 ml of Trypsin-EDTA solution. Once the cell layer is dispersed, 8.0 ml of complete growth medium (Table 3) is added and cells are aspirated by gently pipetting. The cell suspension is transferred to a centrifuge tube and centrifuged at 800-1000 rpm for 3-5 minutes. The supernatant is discarded using a vacuum pump. The cell pellet is suspended in a complete medium by gently pipetting. The cell numbers are counted and adjusted to the appropriate density (Table 3). […] The bottom of each plate is pasted with a white back seal and luminescence is recorded using a Flexstation 3 with the following settings: Luminescence and integration time of 500 ms.

SW13 = experiment: Cell Proliferation Assay ±NA, SW13; conditions: Homo sapiens, SW13, adrenal gland, treatment time 72 hr
Method: as §1

TK10 = experiment: Cell Proliferation Assay ±NA, TK10; conditions: Homo sapiens, TK-10, TK10, kidney, treatment time 72 hr
Method: as §1

TGW = experiment: Cell Proliferation Assay ±NA, TGW; conditions: autonomic ganglia, treatment time 48 hr
Method: as §1

[1] = NA 0.0 μM, read-out: IC50 (μM) NA (0.0 μM)
[2] = NA 10 μM, read-out: IC50 (μM) NA (10 μM)

With `CC(C)(O)CS(=O)(=O)Nc1ccc2c(c1)CCN(C(=O)COc1cccnc1)C2` [Example 1, 2-Hydroxy-2-methyl-N-[2-[2-(3-pyridyloxy)acetyl]-3,4-dihydro-1H-isoquinolin-6-yl]propane-1-sulfonamide] the IC50 (Caki-1; [1]) was 0.13 µM, the IC50 (Caki-1; [2]) was 0.11 µM and the IC50 (SW13; [1]) was 0.05 µM. It also gave an IC50 (SW13; [2]) of 0.02 µM, an IC50 (TK10; [1]) of 0.22 µM and an IC50 (TK10; [2]) of 0.21 µM. It also gave an IC50 (TGW; [1]) of 0.01 µM and an IC50 (TGW; [2]) of 0.01 µM.
